According to US10294202B2, “Pyrrolidinones as herbicides” (FMC Corporation, priority 2013, dated 2019):

Assays:
galium = experiment: Test A postemergence herbicide test; type: in vivo, Galium aparine; conditions: for Plant response rating, Galium: 125 g ai/ha, 0 to 100 scale; for Galium plant response rating (0 to 100 scale, 0 is no effect, 100 is complete control): 500 g ai/ha
Method in brief: (§1)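 Plants at the one- to two-leaf stage, 2–10 cm tall, grown in loam/sand pots, received postemergence sprays of the test chemicals. After about 10 days in the greenhouse, injury was scored visually against untreated controls on a 0–100 scale (0 none, 100 complete control).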

ryegrass, Italian = experiment: Test A pre-/postemergence herbicide test; type: in vivo, Lolium multiflorum; conditions: for Plant response rating, Ryegrass, Italian: 0 to 100 scale
Method in brief: (§2)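 Approximately 10 days after treatment in the greenhouse, plants were compared with untreated controls and given a 0–100 visual injury rating. Applications: preemergence directed soil spray; postemergence on 2–10 cm plants at the one- to two-leaf stage.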

kochia = experiment: Test A pre-/postemergence herbicide test; type: in vivo, Kochia scoparia; conditions: for Plant response rating, Kochia: 0 to 100 scale
Method in brief: as §2

ragweed = experiment: Test A pre-/postemergence herbicide test; type: in vivo, Ambrosia elatior; conditions: for Plant response rating, Ragweed: 0 to 100 scale
Method in brief: as §2

blackgrass = experiment: Test A postemergence herbicide test; type: in vivo, Alopecurus myosuroides; conditions: for Plant response rating, Blackgrass: 125 g ai/ha, 0 to 100 scale; for Blackgrass plant response rating (0 to 100 scale, 0 is no effect, 100 is complete control): 500 g ai/ha
Method in brief: as §1

barnyardgrass [1] = experiment: Test A pre-/postemergence herbicide test; type: in vivo, Echinochloa crus-galli
Method in brief: as §2

rice = experiment: Test B flooded paddy test; type: in vivo, Oryza sativa; conditions: 500 g ai/ha, Flood; scale of 0 to 100 where 0 is no effect and 100 is complete control
Method in brief: (§3)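 Scoring: visual, compared with untreated controls, 0 = no effect through 100 = complete control, taken 13 to 15 days after treatment in the greenhouse. Compounds had been added to paddy water over soil flooded 3 cm deep at the plants' 2-leaf stage.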

wheat = experiment: Test A pre-/postemergence herbicide test; type: in vivo, Triticum aestivum; conditions: Postemergence; for Plant response rating, Wheat: 125 g ai/ha, 0 to 100 scale; for Wheat plant response rating (0 to 100 scale, 0 is no effect, 100 is complete control): 500 g ai/ha
Method in brief: as §2

pigweed = experiment: Test A pre-/postemergence herbicide test; type: in vivo, Amaranthus retroflexus; conditions: for Plant response rating, Pigweed: 0 to 100 scale
Method in brief: as §2

sedge, umbrella = experiment: Test B flooded paddy test; type: in vivo, Cyperus difformis; conditions: 500 g ai/ha, Flood; scale of 0 to 100 where 0 is no effect and 100 is complete control
Method in brief: as §3

giant foxtail = experiment: Test A pre-/postemergence herbicide test; type: in vivo, Setaria faberii; conditions: for Plant response rating, Foxtail, Giant: 0 to 100 scale
Method in brief: as §2

barnyardgrass [2] = experiment: Test B flooded paddy test; type: in vivo, Echinochloa crus-galli; conditions: 500 g ai/ha, Flood; scale of 0 to 100 where 0 is no effect and 100 is complete control
Method in brief: as §3

corn = experiment: Test A pre-/postemergence herbicide test; type: in vivo, Zea mays; conditions: Postemergence; for Plant response rating, Corn: 125 g ai/ha, 0 to 100 scale; for Corn plant response rating (0 to 100 scale, 0 is no effect, 100 is complete control): 500 g ai/ha
Method in brief: as §2

ducksalad = experiment: Test B flooded paddy test; type: in vivo, Heteranthera limosa; conditions: 500 g ai/ha, Flood; scale of 0 to 100 where 0 is no effect and 100 is complete control
Method in brief: as §3

[3] = 0 no effect, 100 complete control
[4] = 125 g ai/ha, visual rating, 0 no effect, 100 complete control, approximately 10 days, preemergence
[5] = Postemergence, 125 g ai/ha, 0 no effect, 100 complete control
[6] = preemergence, 500 g ai/ha, 0 is no effect and 100 is complete control
[7] = 125 g ai/ha, visual rating, 0 to 100 scale, 0 no effect, 100 complete control, approximately 10 days, preemergence
[8] = preemergence, 500 g ai/ha, 0 to 100 scale (0 no effect, 100 complete control)
[9] = 0 is no effect, 100 is complete control
[10] = Postemergence, 125 g ai/ha, 0 is no effect, 100 is complete control
[11] = Postemergence, 125 g ai/ha, 0 to 100 scale, 0 is no effect, 100 is complete control

Structure (SMILES) | Galium plant response rating (0 to 100 scale, 0 is no effect, 100 is complete control) (galium) | Plant response rating, Ryegrass, Italian (ryegrass, Italian; [4]) | Ryegrass, Italian plant response rating (0 to 100 scale, 0 is no effect, 100 is complete control) (ryegrass, Italian; Postemergence, 500 g ai/ha) | Plant response rating, Ryegrass, Italian (ryegrass, Italian; [6]) | Plant response rating, Kochia (kochia; [4]) | Kochia plant response rating (0 to 100 scale, 0 is no effect, 100 is complete control) (kochia; Postemergence, 500 g ai/ha) | Plant response rating, Kochia (kochia; [6]) | Plant response rating, Ragweed (ragweed; [4]) | Ragweed plant response rating (0 to 100 scale, 0 is no effect, 100 is complete control) (ragweed; Postemergence, 500 g ai/ha) | Plant response rating, Ragweed (ragweed; [6]) | Blackgrass plant response rating (0 to 100 scale, 0 is no effect, 100 is complete control) (blackgrass) | Plant response rating, Barnyardgrass (barnyardgrass [1]; [7]) | Barnyardgrass plant response rating (0 to 100 scale, 0 is no effect, 100 is complete control) (barnyardgrass [1]; Postemergence, 500 g ai/ha) | Plant response rating, Barnyardgrass (barnyardgrass [1]; [8]) | Plant response rating, Rice (rice) | Wheat plant response rating (0 to 100 scale, 0 is no effect, 100 is complete control) (wheat) | Plant response rating, Pigweed (pigweed; [4]) | Pigweed plant response rating (0 to 100 scale, 0 is no effect, 100 is complete control) (pigweed; Postemergence, 500 g ai/ha) | Plant response rating, Pigweed (pigweed; [6]) | Plant response rating, Sedge, Umbrella (sedge, umbrella) | further results
Cc1ccc(C2CNC(=O)C2C(=O)Nc2ccccc2Cl)cc1 (racemic) [Compound 152] | 70 | 0 | 50 | 30 | 30 | 60 | 60 | 50 | 50 | 70 | 50 | 90 | 80 | 90 | 15 | 0 | 0 | 20 | 10 | 0 | Plant response rating, Galium (galium; [3]): 60; Plant response rating, Ryegrass, Italian (ryegrass, Italian; [5]): 10; Plant response rating, Kochia (kochia; [5]): 50; Plant response rating, Ragweed (ragweed; [5]): 40; Plant response rating, Blackgrass (blackgrass; [3]): 0; Plant response rating, Barnyardgrass (barnyardgrass [1]; Postemergence, 125 g ai/ha, 0 to 100 scale, 0 no effect, 100 complete control): 70; Plant response rating, Wheat (wheat; [3]): 0; Plant response rating, Pigweed (pigweed; [5]): 0; Plant response rating, Foxtail, Giant (giant foxtail; [4]): 70; Plant response rating, Foxtail, Giant (giant foxtail; [5]): 50; Foxtail, Giant plant response rating (0 to 100 scale, 0 is no effect, 100 is complete control) (giant foxtail; Postemergence, 500 g ai/ha): 60; Plant response rating, Foxtail, Giant (giant foxtail; preemergence, 500 g ai/ha): 90; Plant response rating, Barnyardgrass (barnyardgrass [2]): 60; Plant response rating, Corn (corn; [3]): 0; Corn plant response rating (0 to 100 scale, 0 is no effect, 100 is complete control) (corn): 0; Plant response rating, Ducksalad (ducksalad): 100
Cc1ccc(C2CNC(=O)C2C(=O)Nc2cccc(F)c2)cc1 (racemic) [Compound 153] | 60 | 0 | 0 | 0 | 60 | 60 | 80 | 0 | 10 | 80 | 30 | 80 | 80 | 90 | 10 | 0 | 0 | 50 | 0 | 0 | Plant response rating, Galium (galium; [9]): 0; Plant response rating, Ryegrass, Italian (ryegrass, Italian; [10]): 0; Plant response rating, Kochia (kochia; [10]): 60; Plant response rating, Ragweed (ragweed; [10]): 0; Plant response rating, Blackgrass (blackgrass; [9]): 40; Plant response rating, Barnyardgrass (barnyardgrass [1]; [11]): 60; Plant response rating, Wheat (wheat; [9]): 0; Plant response rating, Pigweed (pigweed; [10]): 40; Plant response rating, Foxtail, Giant (giant foxtail; [4]): 60; Plant response rating, Foxtail, Giant (giant foxtail; [10]): 50; Foxtail, Giant plant response rating (0 to 100 scale, 0 is no effect, 100 is complete control) (giant foxtail; Postemergence, 500 g ai/ha): 60; Plant response rating, Foxtail, Giant (giant foxtail; preemergence, 500 g ai/ha): 80; Plant response rating, Barnyardgrass (barnyardgrass [2]): 60; Plant response rating, Corn (corn; [9]): 0; Corn plant response rating (0 to 100 scale, 0 is no effect, 100 is complete control) (corn): 0; Plant response rating, Ducksalad (ducksalad): 100
O=C1NCC(c2ccc3c(c2)OC(F)(F)O3)C1C(=O)Nc1ccccc1F (racemic) [Compound 161] | 60 | 0 | 50 | 50 | 20 | 60 | 60 | 20 | 30 | 70 | 50 | 90 | 90 | 90 | 10 | 40 | 20 | 60 | 70 | 0 | Plant response rating, Galium (galium; [9]): 50; Plant response rating, Ryegrass, Italian (ryegrass, Italian; [10]): 20; Plant response rating, Kochia (kochia; [10]): 20; Plant response rating, Ragweed (ragweed; [10]): 0; Plant response rating, Blackgrass (blackgrass; [9]): 50; Plant response rating, Barnyardgrass (barnyardgrass [1]; [11]): 90; Plant response rating, Wheat (wheat; [9]): 20; Plant response rating, Pigweed (pigweed; [10]): 20; Plant response rating, Foxtail, Giant (giant foxtail; [4]): 90; Plant response rating, Foxtail, Giant (giant foxtail; [10]): 90; Foxtail, Giant plant response rating (0 to 100 scale, 0 is no effect, 100 is complete control) (giant foxtail; Postemergence, 500 g ai/ha): 90; Plant response rating, Foxtail, Giant (giant foxtail; preemergence, 500 g ai/ha): 90; Plant response rating, Barnyardgrass (barnyardgrass [2]): 65; Plant response rating, Corn (corn; [9]): 10; Corn plant response rating (0 to 100 scale, 0 is no effect, 100 is complete control) (corn): 60; Plant response rating, Ducksalad (ducksalad): 100
